# System: P. acnes
# Experiment: Agar dilution method, growth of P. acnes and MIC, combinations with a fatty acid spike
# Type: cell-based, Propionibacterium acnes
# Design: key to Growth Index Plate 1 / Growth Index Plate 2 / Growth Index Plate 3 / Growth Index Avg: +++: confluent growth (comparable to control); ++: less confluent growth; +: marked reduction in growth to multiple tiny, single colonies; −: no growth present
# [1] = compound at 1 mg/mL + 0.01 mg/mL 15-HETrE
# [2] = compound at 1 mg/mL + 0.05 mg/mL 15-HETrE
# [3] = compound at 1 mg/mL + 0.05 mg/mL 15-OHEPA
# [4] = compound at 1 mg/mL + 0.1 mg/mL 15-OHEPA
# [5] = compound at 1 mg/mL + 0.4 mg/mL dGLA
# [6] = compound at 1 mg/mL + 1.0 mg/mL dGLA
# [7] = compound at 5 mg/mL + 0.01 mg/mL 15-HETrE
# [8] = compound at 5 mg/mL + 0.05 mg/mL 15-HETrE
# [9] = compound at 5 mg/mL + 0.05 mg/mL 15-OHEPA
# [10] = compound at 5 mg/mL + 0.1 mg/mL 15-OHEPA
# [11] = compound at 5 mg/mL + 0.4 mg/mL dGLA
# [12] = compound at 5 mg/mL + 1.0 mg/mL dGLA
# [13] = compound at 10 mg/mL + 0.01 mg/mL 15-HETrE
# [14] = compound at 10 mg/mL + 0.05 mg/mL 15-HETrE
# [15] = compound at 10 mg/mL + 0.05 mg/mL 15-OHEPA
# [16] = compound at 10 mg/mL + 0.1 mg/mL 15-OHEPA
# [17] = compound at 10 mg/mL + 0.4 mg/mL dGLA
# [18] = compound at 10 mg/mL + 1.0 mg/mL dGLA
# [19] = compound at 15 mg/mL + 0.01 mg/mL 15-HETrE
# [20] = compound at 15 mg/mL + 0.05 mg/mL 15-HETrE
# [21] = compound at 15 mg/mL + 0.05 mg/mL 15-OHEPA
# [22] = compound at 15 mg/mL + 0.1 mg/mL 15-OHEPA
# [23] = compound at 15 mg/mL + 0.4 mg/mL dGLA
# [24] = compound at 15 mg/mL + 1.0 mg/mL dGLA
# [25] = compound at 25 mg/mL + 0.01 mg/mL 15-HETrE
# [26] = compound at 25 mg/mL + 0.05 mg/mL 15-HETrE
# [27] = compound at 25 mg/mL + 0.05 mg/mL 15-OHEPA
# [28] = compound at 25 mg/mL + 0.1 mg/mL 15-OHEPA
# [29] = compound at 25 mg/mL + 0.4 mg/mL dGLA
# [30] = compound at 25 mg/mL + 1.0 mg/mL dGLA
compound,measurement,setting,value
NC(=O)c1cccnc1 [Nicotinamide],Growth Index Avg,[1],+++
same,Growth Index Plate 1,[1],+++
same,Growth Index Plate 2,[1],+++
same,Growth Index Plate 3,[1],+++
same,Growth Index Avg,[2],−
same,Growth Index Plate 1,[2],−
same,Growth Index Plate 2,[2],−
same,Growth Index Plate 3,[2],−
same,Growth Index Avg,[3],+++
same,Growth Index Plate 1,[3],+++
same,Growth Index Plate 2,[3],+++
same,Growth Index Plate 3,[3],+++
same,Growth Index Avg,[4],−
same,Growth Index Plate 1,[4],−
same,Growth Index Plate 2,[4],−
same,Growth Index Plate 3,[4],−
same,Growth Index Avg,[5],+++
same,Growth Index Plate 1,[5],+++
same,Growth Index Plate 2,[5],+++
same,Growth Index Plate 3,[5],+++
same,Growth Index Avg,[6],+++
same,Growth Index Plate 1,[6],+++
same,Growth Index Plate 2,[6],+++
same,Growth Index Plate 3,[6],+++
same,Growth Index Avg,[7],+++
same,Growth Index Plate 1,[7],+++
same,Growth Index Plate 2,[7],+++
same,Growth Index Plate 3,[7],+++
same,Growth Index Avg,[8],−
same,Growth Index Plate 1,[8],−
same,Growth Index Plate 2,[8],−
same,Growth Index Plate 3,[8],−
same,Growth Index Avg,[9],+++
same,Growth Index Plate 1,[9],+++
same,Growth Index Plate 2,[9],+++
same,Growth Index Plate 3,[9],+++
same,Growth Index Avg,[10],−
same,Growth Index Plate 1,[10],−
same,Growth Index Plate 2,[10],−
same,Growth Index Plate 3,[10],−
same,Growth Index Avg,[11],+++
same,Growth Index Plate 1,[11],+++
same,Growth Index Plate 2,[11],+++
same,Growth Index Plate 3,[11],+++
same,Growth Index Avg,[12],+++
same,Growth Index Plate 1,[12],+++
same,Growth Index Plate 2,[12],+++
same,Growth Index Plate 3,[12],+++
same,Growth Index Avg,[13],++
same,Growth Index Plate 1,[13],++
same,Growth Index Plate 2,[13],++
same,Growth Index Plate 3,[13],++
same,Growth Index Avg,[14],−
same,Growth Index Plate 1,[14],−
same,Growth Index Plate 2,[14],−
same,Growth Index Plate 3,[14],−
same,Growth Index Avg,[15],+++
same,Growth Index Plate 1,[15],+++
same,Growth Index Plate 2,[15],+++
same,Growth Index Plate 3,[15],+++
same,Growth Index Avg,[16],−
same,Growth Index Plate 1,[16],−
same,Growth Index Plate 2,[16],−
same,Growth Index Plate 3,[16],−
same,Growth Index Avg,[17],+++
same,Growth Index Plate 1,[17],+++
same,Growth Index Plate 2,[17],+++
same,Growth Index Plate 3,[17],+++
same,Growth Index Avg,[18],++
same,Growth Index Plate 1,[18],+
same,Growth Index Plate 2,[18],++
same,Growth Index Plate 3,[18],++
same,Growth Index Avg,[19],−
same,Growth Index Plate 1,[19],−
same,Growth Index Plate 2,[19],−
same,Growth Index Plate 3,[19],−
same,Growth Index Avg,[20],−
same,Growth Index Plate 1,[20],−
same,Growth Index Plate 2,[20],−
same,Growth Index Plate 3,[20],−
same,Growth Index Avg,[21],−
same,Growth Index Plate 1,[21],−
same,Growth Index Plate 2,[21],−
same,Growth Index Plate 3,[21],−
same,Growth Index Avg,[22],−
same,Growth Index Plate 1,[22],−
same,Growth Index Plate 2,[22],−
same,Growth Index Plate 3,[22],−
same,Growth Index Avg,[23],+
same,Growth Index Plate 1,[23],+
same,Growth Index Plate 2,[23],+
same,Growth Index Plate 3,[23],+
same,Growth Index Avg,[24],−
same,Growth Index Plate 1,[24],−
same,Growth Index Plate 2,[24],−
same,Growth Index Plate 3,[24],−
same,Growth Index Avg,[25],−
same,Growth Index Plate 1,[25],−
same,Growth Index Plate 2,[25],−
same,Growth Index Plate 3,[25],−
same,Growth Index Avg,[26],−
same,Growth Index Plate 1,[26],−
same,Growth Index Plate 2,[26],−
same,Growth Index Plate 3,[26],−
same,Growth Index Avg,[27],−
same,Growth Index Plate 1,[27],−
same,Growth Index Plate 2,[27],−
same,Growth Index Plate 3,[27],−
same,Growth Index Avg,[28],−
same,Growth Index Plate 1,[28],−
same,Growth Index Plate 2,[28],−
same,Growth Index Plate 3,[28],−
same,Growth Index Avg,[29],−
same,Growth Index Plate 1,[29],−
same,Growth Index Plate 2,[29],−
same,Growth Index Plate 3,[29],−
same,Growth Index Avg,[30],−
same,Growth Index Plate 1,[30],−
same,Growth Index Plate 2,[30],−
same,Growth Index Plate 3,[30],−
same,"growth of P. Acnes in combination with 15-HETrE, compared with 15-HETrE used alone",in combination with 15-HETrE,did not reduce the growth
same,"growth of P. Acnes in combination with 15-OHEPA, compared with 15 OHEPA used alone",in combination with 15-OHEPA,did not reduce the growth
same,"growth of P. Acnes in combination with DGLA, compared with DGLA used alone",in combination with DGLA,did not reduce the growth

# — patent US20130274338A1, “PHARMACEUTICAL COMPOSITIONS COMPRISING DGLA, 15-OHEPA, AND/OR 15-HETRE AND METHODS OF REDUCING SEBUM PRODUCTION USING SAME” (priority 2012, published 2013)
